Reference: ChEMBL document CHEMBL1151126, “Studies on inhibitors of skin tumor promotion, III. Inhibitory effects of isoflavonoids from Wisteria brachybotrys on Epstein-Barr virus activation” (J Nat Prod, 1988)
Activity calls are given as the source filed them. The rule behind the calls is not given here.

Tests used:
HeLa [1] = assay: Inhibition of TPA-stimulated [32P] incorporation into phospholipids in human HeLa cells at 50 uM after 1 hr; format: functional
Mus musculus = species on record: Mus musculus; assay: Displacement of [3H]TPA from TPA receptor in ICR mouse epidermal particulate fraction by Me2CO filter method
[2] = Cytotoxicity against human Raji cells assessed as cell viability at 100 molar ratio; format: cell-based; conditions: read-out: Activity
Raji [3] = assay: Inhibition of 12-O-tetradecanoylphorbol-13-acetate-induced EBV-early antigen activation in human Raji cells assessed as early antigen induction at 1000 molar ratio after 48 hrs by indirect immunofluorescence technique relative to TPA; format: cell-based; design: scale not given: the % may be the effect or the level left; conditions: human gammaherpesvirus 4
[4] = Cytotoxicity against human Raji cells assessed as cell viability at 10000 molar ratio; format: cell-based; conditions: read-out: Activity
Raji [5] = assay: Inhibition of 12-O-tetradecanoylphorbol-13-acetate-induced EBV-early antigen activation in human Raji cells assessed as early antigen induction at 10000 molar ratio after 48 hrs by indirect immunofluorescence technique relative to TPA; format: cell-based; design: scale not given: the % may be the effect or the level left; conditions: human gammaherpesvirus 4
HeLa [6] = assay: Cytotoxicity in human HeLa cells assessed as decrease in cell number at 50 uM after 1 hr; format: cell-based
HeLa [7] = assay: Cytotoxicity in human HeLa cells assessed as effect on cell viability at 50 uM after 1 hr; format: cell-based
[8] = Cytotoxicity against human Raji cells assessed as cell viability at 1000 molar ratio; format: cell-based; conditions: read-out: Activity
Raji [9] = assay: Inhibition of EBV-early antigen activation in human Raji cells assessed as early antigen activation at 320 nM; format: cell-based; design: scale not given: the % may be the effect or the level left; conditions: human gammaherpesvirus 4
Raji [10] = assay: Inhibition of 12-O-tetradecanoylphorbol-13-acetate-induced EBV-early antigen activation in human Raji cells assessed as early antigen induction at 10 molar ratio after 48 hrs by indirect immunofluorescence technique relative to TPA; format: cell-based; design: scale not given: the % may be the effect or the level left; conditions: human gammaherpesvirus 4
Raji [11] = assay: Inhibition of 12-O-tetradecanoylphorbol-13-acetate-induced EBV-early antigen activation in human Raji cells assessed as early antigen induction at 100 molar ratio after 48 hrs by indirect immunofluorescence technique relative to TPA; format: cell-based; design: scale not given: the % may be the effect or the level left; conditions: human gammaherpesvirus 4
[12] = Cytotoxicity against human Raji cells assessed as cell viability at 10 molar ratio; format: cell-based; conditions: read-out: Activity

SMILES | inhibition at 50 µM (HeLa [1]) [%] | Activity (Mus musculus) | viability at 100 molar ratio [2] [%] | Activity (Raji [3]) [%] | viability at 10000 molar ratio [4] [%] | Activity (Raji [5]) [%] | Activity (HeLa [6]) | Activity (HeLa [7]) | viability at 1000 molar ratio [8] [%] | Activity (Raji [9]) [%] | Activity (Raji [10]) [%] | Activity (Raji [11]) [%] | viability at 10 molar ratio [12] [%]
COc1ccc(-c2coc3cc(OC(C)=O)c(OC)cc3c2=O)cc1 | 33.9 | inactive | > 80 | 6 | 80 | 0 | Non-toxic | Non-toxic | > 80 | 2.1 | 72.7 | 42.3 | 100
COc1ccc(-c2coc3cc(OC(C)=O)ccc3c2=O)cc1 | 40.2 | – | 100 | 15.2 | 80 | 0 | Non-toxic | Non-toxic | > 80 | 0 | 100 | 95.2 | 100
C=C[C@]1(C)CC[C@@](C)(C(C)C)c2cc3c4c(c[nH]c4c21)C[C@@H](CO)NC(=O)[C@H](C(C)C)N3C | – | Active | – | – | – | – | – | – | – | – | – | – | –
CCCCCCCCCCCCCC(=O)O[C@@H]1[C@@H](C)[C@@]2(O)[C@@H](C=C(CO)C[C@]3(O)C(=O)C(C)=C[C@@H]23)[C@@H]2C(C)(C)[C@]12OC(C)=O | – | Active | – | – | – | – | – | – | – | – | – | – | –
COc1ccc(-c2coc3cc(O)c(OC)cc3c2=O)cc1 [CASTANIN] | 16.4 | inactive | > 80 | 36.4 | 80 | 0 | Non-toxic | Non-toxic | > 80 | 34 | 100 | 75.8 | 100
COc1ccc(-c2coc3cc(O)ccc3c2=O)cc1 [FORMONONETIN] | 34.5 | inactive | > 80 | 63.6 | 20 | 0 | Non-toxic | Non-toxic | > 80 | 0 | 100 | 92.6 | 100
COc1ccc(-c2coc3cc(O[C@@H]4O[C@H](CO)[C@@H](O)[C@H](O)[C@H]4O)ccc3c2=O)cc1 [ONONIN] | 12.3 | – | 100 | 76 | 80 | 39.3 | Non-toxic | Non-toxic | > 80 | 2 | 100 | 100 | 100
COc1ccc(-c2coc3cc(O[C@@H]4O[C@H](CO)[C@@H](O)[C@H](O)[C@H]4O)c(OC)cc3c2=O)cc1 [WISTIN] | 0 | – | > 80 | 78.5 | 50 | 15.2 | Non-toxic | Non-toxic | > 80 | 0 | 100 | 86.6 | 100
